The nature of series [1]: log P by HPLC on reversed-phase column (C 18), EEC Directive 79/831 Annex V.A8. It is filed as physicochemical. The following applies: reversed-phase HPLC column (C 18), 40° C., 0.1% aqueous formic acid and acetonitrile. On the procedure: In table 1, the log P values were determined in accordance with EEC Directive 79/831 Annex V.A8 by HPLC (High Performance Liquid Chromatography) on a reversed-phase column (C 18), using the method described below:
Temperature: 40° C.; Mobile phases: 0.1% aqueous formic acid and acetonitrile; linear gradient from 10% acetonitrile to 90% acetonitrile.
Calibration was carried out using unbranched alkan-2-ones (comprising 3 to 16 carbon atoms) with known log P values (determination of the log P values by the retention times using linear interpolation between two successive alkanones). lambda-max-values were determined using UV-spectra from 200 nm to 400 nm and the peak values of the chromatographic signals.

For a further series, the system named is Pyrenophora teres. The series is described as follows: Pyrenophora teres-test (barley)/preventive. Type of series: in vivo. The following applies: preventive, 30 ppm a.i., evaluated 8 days after inoculation. On the procedure:
(§1) The commercially available compounds SERENADE-MAX®, SONATA®, active compounds (1 part by weight) solved in N,N-dimethylacetamide (49 parts by weight) and alkylaryl polyglycol ether (1 part by weight), or combinations thereof were diluted with water to the desired concentration.
(§2) To test for preventive activity, young plants are sprayed with the preparation of active compound or active compound combination at the stated rate of application.
After the spray coating has been dried, the plants are sprayed with a spore suspension of Pyrenophora teres. The plants remain for 48 hours in an incubation cabinet at approximately 20° C. and a relative atmospheric humidity of approximately 100%.
(§3) The plants are placed in the greenhouse at a temperature of approximately 20° C. and a relative atmospheric humidity of approximately 80%.
(§4) The test is evaluated 8 days after the inoculation. 0% means an efficacy which corresponds to that of the untreated control, while an efficacy of 100% means that no disease is observed.

A further series has as its system Puccinia triticina. The series is described as follows: Puccinia triticina-test (wheat)/preventive. The following applies: preventive, 30 ppm a.i., evaluated 8 days after inoculation. Type of series: in vivo. The protocol: as §1, §2
After the spray coating has been dried, the plants are sprayed with a spore suspension of Puccinia triticina. The plants remain for 48 hours in an incubation cabinet at approximately 20° C. and a relative atmospheric humidity of approximately 100%.
as §3, §4

The test system of a further series is Septoria tritici. The series is described as follows: Septoria tritici-test (wheat)/preventive. The following applies: preventive, 30 ppm a.i., evaluated 21 days after inoculation. Type of series: in vivo. The protocol: as §1, §2
After the spray coating has been dried, the plants are sprayed with a spore suspension of Septoria tritici. The plants remain for 48 hours in an incubation cabinet at approximately 20° C. and a relative atmospheric humidity of approximately 100% and afterwards for 60 hours at approximately 15° C. in a translucent incubation cabinet at a relative atmospheric humidity of approximately 100%.
The plants are placed in the greenhouse at a temperature of approximately 15° C. and a relative atmospheric humidity of approximately 80%.
The test is evaluated 21 days after the inoculation. 0% means an efficacy which corresponds to that of the untreated control, while an efficacy of 100% means that no disease is observed.

In series [1], `CC(C)c1ccccc1CN(C(=S)c1c(C(F)F)nn(C)c1F)C1CC1` [A20, N-cyclopropyl-3-(difluoromethyl)-5-fluoro-N-(2-isopropylbenzyl)-1-methyl-1H-pyrazole-4-carbothioamide] returned a chromatographic logP of 4.36.

As for `CC(C)c1ccc(Cl)cc1CN(C(=O)c1c(C(F)F)nn(C)c1F)C1CC1` [A5, N-(5-chloro-2-isopropylbenzyl)-N-cyclopropyl-3-(difluoromethyl)-5-fluoro-1-methyl-1H-pyrazole-4-carboxamide], the “Efficacy in % found” value in the series on Pyrenophora teres is on record as 78%; with Puccinia triticina, 67%; in the series on Septoria tritici it was 60%.

For the origin of these results see patent US9439426B2, “Active compound combinations comprising carboxamide derivatives and a biological control agent” (BAYER CROPSCIENCE AG, priority 2012, dated 2016).
